Measurements published in PMC9179341, “Design of New Potent and Selective Thiophene-Based KV1.3 Inhibitors and Their Potential for Anticancer Activity” (Cancers, 2022).

How the values were obtained:
Type in all cases: cell-based
[1] = molecular target: KV1.1 (Rattus norvegicus, UniProt P10499); assay: Selectivity, HiClamp Xenopus laevis heterologous expression system, KV1.1; conditions: at a concentration of the compound's IC50 value for KV1.3
Procedure: (§1) Ion channels (Kv1.x, Kv2.1, Kv4.2, Kv10.1) were expressed in Xenopus laevis oocytes by linearization of the plasmids and subsequent in vitro transcription using a commercial T7 or SP6 mMESSAGE mMACHINE transcription kit (Ambion, Carlsbad, California, USA). Defolliculated Xenopus oocytes were then injected with 20–50 nL of the cRNA at a concentration of 1 ng/nL using a micro-injector (Drummond Scientific1, Broomall, PA, USA). The oocytes were incubated in a solution containing (in mM): NaCl, 96; KCl, 2; CaCl2, 1.8; MgCl2, 2 and HEPES, 5 (pH 7.5), supplemented with 50 mg/L gentamycin sulfate and 90 mg/L theophylline. After ex vivo translation, the ion channels were correctly inserted in the cell membrane of the oocytes.
(§2) Two-electrode voltage-clamp recordings were performed at room temperature (18–22 °C) using a Geneclamp 500 amplifier (Molecular Devices, San Jose, CA, USA) and pClamp data acquisition (Axon Instruments, Union City, CA, USA) and using an integrated digital TEVC amplifier controlled by HiClamp, an automated Voltage-Clamp Screening System (Multi Channel Systems MCS GmbH, Reutlingen, Germany). Whole-cell currents from oocytes were recorded 1–4 days after injection. The bath solution composition was ND96 (in mM): NaCl, 96; KCl, 2; CaCl2, 1.8; MgCl2, 2 and HEPES, 5 (pH 7.5). Voltage and current electrodes were filled with a 3 M solution of KCl in H2O. Resistances of both electrodes were kept between 0.5 and 1.5 MΩ. The elicited Kv1.x, Kv2.1, Kv4.2 and Kv10.1 currents were filtered at 0.5 kHz and sampled at 2 kHz using a four-pole low-pass Bessel filter. Leak subtraction was performed using a P/4 protocol.
(§3) For the electrophysiological analysis of the compounds, a number of protocols were applied from a holding potential of −90 mV. Currents for Kv1.x, Kv2.1, Kv4.2 and Kv10.1 were evoked by 1 s depolarizing pulses either to 0 mV or to a range of voltage steps between −80 mV and +40 mV. For the analysis of the data, only the inhibition at the 0 mV step was used. The concentration dependency of all compounds was assessed by measuring the current inhibition in the presence of increasing compound concentrations. […] From this stock solution, adequate dilutions with a maximum of 0.5% DMSO were made for testing.
All electrophysiological data (Figure S1) are presented as means ± S.E.M of n ≥ three independent experiments unless otherwise indicated. All data were analyzed using pClamp Clampfit 10.4 (Molecular Devices, Downingtown, PA, USA), OriginPro 9 (Originlab, Northampton, MA, USA), GraphPad Prism 8 software (GraphPad Software, Inc., San Diego, CA, USA) and DataMining (Multi Channel Systems MCS GmbH, Reutlingen, Germany). The Dunnett test and one-way ANOVA were performed to calculate the significance of the induced inhibition compared to the control.

[2] = system: Panc-1 tumor spheroids; assay: Apoptosis (caspase 3/7 activity) in Panc-1 tumor spheroids; conditions: with 8.9 µM cycloheximide
Procedure: Cell lines Panc-1 (ACC 783) and Colo-357 (CVCL_0221) were obtained through the validated collection of the pHioniC consortium (MSC-ITN 813834). Both cell lines were grown in RPMI1640, supplemented with 1 mM sodium pyruvate and 1% Glutamax (all Gibco Thermo-Fisher, Waltham, MA USA) 10%FBS (BioChrom, Berlin, Germany), at 5% CO2 and 37 °C in a humidified atmosphere.
Spheroids were cultured in round bottom ultra-low attachment 96-well plates (Corning). The optimal seeding densities were empirically determined (8000 cells/well for Colo-357 or 10,000 cells/well for Panc-1 spheroids. The cells were suspended in 2% Matrigel (Corning), centrifuged at 1000× g for 10 min and the spheroids were allowed to form in the incubator. Once the spheroids were formed, the treatments indicated together with 8.9 µM cycloheximide (as apoptosis sensitizer) were added and apoptosis was determined by live imaging in the Incucyte system in real time for approximately 60 h using Caspase-3/7 green reagent (Sartorius) as a reporter of apoptosis, which crosses the cell membrane and is cleaved by the activated Caspase-3/7, resulting in the fluorescent staining of nuclear DNA. Apoptosis on Panc-1 tumor spheroids is presented as integrated green fluorescence in the whole spheroid.

[3] = molecular target: KV1.3 (Homo sapiens, UniProt P22001); assay: KV1.3 inhibition, manual voltage-clamp on Xenopus laevis oocytes; conditions: for inhibition at 10 µM: manual voltage-clamp on Xenopus laevis oocytes; for IC50: KV1.3, manual voltage-clamp, Xenopus laevis oocytes
Chain of KV1.3 (P22001 whole entry): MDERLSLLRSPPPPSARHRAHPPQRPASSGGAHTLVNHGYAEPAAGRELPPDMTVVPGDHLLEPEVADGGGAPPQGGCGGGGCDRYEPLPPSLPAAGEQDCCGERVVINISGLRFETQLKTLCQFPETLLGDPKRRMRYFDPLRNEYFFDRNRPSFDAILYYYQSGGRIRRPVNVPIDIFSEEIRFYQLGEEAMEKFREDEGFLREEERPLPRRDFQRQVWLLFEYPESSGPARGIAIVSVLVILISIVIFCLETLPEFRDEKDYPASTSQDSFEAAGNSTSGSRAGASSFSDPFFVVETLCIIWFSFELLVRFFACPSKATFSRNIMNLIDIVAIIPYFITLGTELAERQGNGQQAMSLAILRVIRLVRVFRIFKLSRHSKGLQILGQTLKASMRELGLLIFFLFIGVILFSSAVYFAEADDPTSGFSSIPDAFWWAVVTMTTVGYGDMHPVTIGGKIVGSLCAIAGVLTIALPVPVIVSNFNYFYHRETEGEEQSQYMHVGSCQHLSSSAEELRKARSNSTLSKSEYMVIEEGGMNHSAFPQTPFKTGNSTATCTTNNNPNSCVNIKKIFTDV
Procedure: Stage V–VI oocytes were isolated by partial ovariectomy from Xenopus laevis frogs (African clawed frogs). […] After anaesthetizing the frogs by a 15-min submersion in 0.1% tricaine methanesulfonate (amino benzoic acid ethyl ester; Merck, Kenilworth, NJ, USA), pH 7.0, the oocytes were collected. The isolated oocytes were then washed with a 1.5 mg/mL collagenase solution for 2 h to remove the follicle layer.
as §1, with “theophylline.” for “theophylline. After ex vivo translation, the ion channels were correctly inserted in the cell membrane of the oocytes.”
as §2, with “Resistances of both electrodes were kept between 0.5 and 1.5 MΩ.” left out
as §3
All electrophysiological data (Figure S1) are presented as means ± S.E.M of n ≥ three independent experiments unless otherwise indicated. […] The Dunnett test and one-way ANOVA were performed to calculate the significance of the induced inhibition compared to the control.

Chain of KV1.1 (P10499 whole entry): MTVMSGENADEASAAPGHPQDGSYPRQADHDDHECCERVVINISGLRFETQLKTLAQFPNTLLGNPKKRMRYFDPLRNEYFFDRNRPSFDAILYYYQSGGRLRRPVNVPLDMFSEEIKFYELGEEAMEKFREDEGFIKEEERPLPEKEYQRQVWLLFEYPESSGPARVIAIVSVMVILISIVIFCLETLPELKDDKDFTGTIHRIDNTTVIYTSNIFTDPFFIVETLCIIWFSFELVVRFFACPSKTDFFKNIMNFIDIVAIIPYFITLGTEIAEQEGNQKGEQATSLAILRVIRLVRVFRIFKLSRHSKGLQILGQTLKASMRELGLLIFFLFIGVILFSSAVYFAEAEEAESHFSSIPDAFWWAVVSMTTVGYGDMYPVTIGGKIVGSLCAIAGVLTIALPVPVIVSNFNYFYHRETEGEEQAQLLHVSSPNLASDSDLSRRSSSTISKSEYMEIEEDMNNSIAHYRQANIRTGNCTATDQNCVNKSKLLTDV

| Effect on KV1.1 channel [1] | inhibition at 10 µM [3] [%] | IC50 [3] [nM] | SMILES | Induction of apoptosis in Panc-1 spheroids [2] |
| --- | --- | --- | --- | --- |
| no significant effects | 96 ± 1 | 470 | COc1ccccc1C(=O)NCC1(c2ccsc2)CCOCC1 [Compound 44] | did not induce detectable levels of apoptosis |
| significant effects | 92 ± 4 | 570 | COc1ccccc1C(=O)NCC1(c2cccs2)CCOC1 (stereo not shown) [Compound 14] | did not induce detectable levels of apoptosis |
| significantly inhibited | 94 ± 1 | 3960 ± 470 | COc1ccc(F)cc1C(=O)NCC1(c2ccccc2)CCOCC1 [Compound 37] | did not induce detectable levels of apoptosis |
| significant effects | 92 ± 1 | 590 | COc1ccccc1C(=O)NCC1(c2cccs2)CCOCC1 [Compound 43] | did not induce detectable levels of apoptosis |
